# Like-named read-outs stand apart in the source and are kept apart here.
# Tested on: Neisseria gonorrhoeae
# Test: MIC, microbroth dilution, G77L medium
# Assay type: cell-based
smiles,measurement,setting,value
"O=C(Nc1nnc(-c2ccc(F)cc2)o1)c1ccc(Cl)cc1 [KKL-35, 4-chloro-N-(5-(4-fluorophenyl)-1,3,4-oxadiazol-2-yl)benzamide]",MIC,"Neisseria gonorrhoeae, strain MMX 6762, by Micromyx, read-out: MIC",0.13 µg/mL
same,MIC,"Neisseria gonorrhoeae, strain MMX 6762, single data point, Micromyx, read-out: MIC",0.13 µg/mL
same,MIC,"Neisseria gonorrhoeae, strain MMX 6767, by Micromyx, read-out: MIC",0.06 µg/mL
same,MIC,"Neisseria gonorrhoeae, strain MMX 6767, single data point, Micromyx, read-out: MIC",0.06 µg/mL
same,MIC,"Neisseria gonorrhoeae, strain MMX 6771, TET, by Micromyx, read-out: MIC",0.06 µg/mL
same,MIC,"Neisseria gonorrhoeae, strain MMX 6771, single data point, Micromyx, read-out: MIC",0.06 µg/mL
same,MIC,"Neisseria gonorrhoeae, strain MMX 6793, CIP, by Micromyx, read-out: MIC",0.06 µg/mL
same,MIC,"Neisseria gonorrhoeae, strain MMX 6793, single data point, Micromyx, read-out: MIC",0.06 µg/mL
same,MIC,"Neisseria gonorrhoeae, strain MMX 6797, CIP, TET, by Micromyx, read-out: MIC",0.06 µg/mL
same,MIC,"Neisseria gonorrhoeae, strain MMX 6797, single data point, Micromyx, read-out: MIC",0.06 µg/mL
same,MIC,"Neisseria gonorrhoeae, strain MMX 6803, CIP, by Micromyx, read-out: MIC",0.13 µg/mL
same,MIC,"Neisseria gonorrhoeae, strain MMX 6803, single data point, Micromyx, read-out: MIC",0.13 µg/mL
same,MIC,"Neisseria gonorrhoeae, strain MMX 6812, CIP, by Micromyx, read-out: MIC",0.13 µg/mL
same,MIC,"Neisseria gonorrhoeae, strain MMX 6812, single data point, Micromyx, read-out: MIC",0.13 µg/mL
same,MIC,"Neisseria gonorrhoeae, strain MMX 6818, CIP, by Micromyx, read-out: MIC",0.13 µg/mL
same,MIC,"Neisseria gonorrhoeae, strain MMX 6818, single data point, Micromyx, read-out: MIC",0.13 µg/mL
same,MIC,"Neisseria gonorrhoeae, strain MMX 6819, CIP, by Micromyx, read-out: MIC",0.13 µg/mL
same,MIC,"Neisseria gonorrhoeae, strain MMX 6819, single data point, Micromyx, read-out: MIC",0.13 µg/mL
same,MIC,"Neisseria gonorrhoeae, strain MMX 6879, by Micromyx, read-out: MIC",0.06 µg/mL
same,MIC,"Neisseria gonorrhoeae, strain MMX 6879, single data point, Micromyx, read-out: MIC",0.06 µg/mL
same,MIC,"Neisseria gonorrhoeae, strain MMX 6921, CIP, by Micromyx, read-out: MIC",0.25 µg/mL
same,MIC,"Neisseria gonorrhoeae, strain MMX 6921, single data point, Micromyx, read-out: MIC",0.25 µg/mL
same,MIC,"Neisseria gonorrhoeae, strain MMX 6922, CIP, by Micromyx, read-out: MIC",0.25 µg/mL
same,MIC,"Neisseria gonorrhoeae, strain MMX 6922, single data point, Micromyx, read-out: MIC",0.25 µg/mL
same,MIC,"Neisseria gonorrhoeae, strain MMX 6983, CIP, by Micromyx, read-out: MIC",0.25 µg/mL
same,MIC,"Neisseria gonorrhoeae, strain MMX 6983, single data point, Micromyx, read-out: MIC",0.25 µg/mL
same,MIC,"Neisseria gonorrhoeae, strain MMX 6989, by Micromyx, read-out: MIC",0.13 µg/mL
same,MIC,"Neisseria gonorrhoeae, strain MMX 6989, single data point, Micromyx, read-out: MIC",0.13 µg/mL
same,MIC,"Neisseria gonorrhoeae, strain MMX 6990, CIP, by Micromyx, read-out: MIC",0.06 µg/mL
same,MIC,"Neisseria gonorrhoeae, strain MMX 6990, single data point, Micromyx, read-out: MIC",0.06 µg/mL
same,MIC,"Neisseria gonorrhoeae, strain MMX 6992, by Micromyx, read-out: MIC",0.13 µg/mL
same,MIC,"Neisseria gonorrhoeae, strain MMX 6992, single data point, Micromyx, read-out: MIC",0.13 µg/mL
same,MIC,"Neisseria gonorrhoeae, strain MMX 6996, by Micromyx, read-out: MIC",0.13 µg/mL
same,MIC,"Neisseria gonorrhoeae, strain MMX 6996, single data point, Micromyx, read-out: MIC",0.13 µg/mL
same,MIC,"Neisseria gonorrhoeae, strain MMX 6998, CIP, by Micromyx, read-out: MIC",0.25 µg/mL
same,MIC,"Neisseria gonorrhoeae, strain MMX 6998, single data point, Micromyx, read-out: MIC",0.25 µg/mL
same,MIC,"Neisseria gonorrhoeae, strain MMX 7002, CIP, by Micromyx, read-out: MIC",0.13 µg/mL
same,MIC,"Neisseria gonorrhoeae, strain MMX 7002, single data point, Micromyx, read-out: MIC",0.13 µg/mL
same,MIC,"Neisseria gonorrhoeae, strain MMX 7005, by Micromyx, read-out: MIC",0.03 µg/mL
same,MIC,"Neisseria gonorrhoeae, strain MMX 7005, single data point, Micromyx, read-out: MIC",0.03 µg/mL
same,MIC90,"Neisseria gonorrhoeae, Supplementary Table 3, n = 32 (KKL-35), 71 (MBX-4132) strains, read-out: MIC90 (n)",0.25 µg/mL
same,MIC,"strain ATCC 49226, replicates 1-3",0.124 µg/mL
same,MIC,"strain ATCC 700719, replicates 1-3",0.248 µg/mL
same,MIC,"strain ATCC 700825, replicates 1-3",0.062 µg/mL
same,MIC,"strain BAA-1846, replicates 1-3",0.062 µg/mL
same,MIC,"strain HO41, replicates 1-3",0.248 µg/mL
